Source: patent publication US12545677B2, “Compounds useful as factor XIa inhibitors” (JANSSEN PHARMACEUTICA NV, priority 2020, dated 2026)
pIC50: −log10 of the molar value.

Assays:
[1] = system: mitochondrial respiration in HepG2 cells; experiment: Seahorse assay, mitochondrial respiration; format: cell-based; conditions: Homo sapiens, 0.3-100 μM, read-out: IC50, mitochondrial respiration as measured by spare respiratory capacity
Experimental: Biological Example 11: Seahorse Assay
The purpose of this assay was to investigate the effect of the compound of formula (I-A) on mitochondrial respiration in HepG2 cells using the Agilent Seahorse XFe96 analyzer. Cell viability was also determined in HepG2 cells in parallel to the Seahorse assay.
Measurement of mitochondrial respiration in HepG2 Cells: Compound doses were prepared in 100% DMSO and subsequently diluted in assay medium to achieve final solvent concentration of 0.10%. HepG2 cells were plated overnight in a Seahorse plate (Agilent Technologies, Santa Clara, California) at a density of 40,000 cells/well in EMEM containing 10% HI FBS and 1× Pen/Strep cell culture. […] Mitochondrial respiration, quantitated as oxygen consumption rate (OCR), was measured on an Agilent Seahorse XFe96 analyzer using the Seahorse Mito Stress test assay as per the manufacturer's protocol. […]
Data Analyses: Mitochondrial SRC (spare respiratory capacity) was calculated by subtracting the rate of the basal respiration from the rate of the maximal respiration. […] All experiments were run in triplicate and the mean and standard deviations were calculated for each test concentration. […]
IC50 values were determined by nonlinear regression and fitting of the dose response curves to a […] equation with variable slope (Hill coefficient): […]

human plasma kallikrein = human plasma kallikrein (Homo sapiens, UniProt P03952); experiment: Kallikrein inhibition assay utilizing quenched AMC peptide substrate; format: biochemical; conditions: read-out: Plasma kallikrein (PK) IC50
Experimental: Biological Example 2: Kallikrein Inhibition Assay
Utilizing Quenched AMC Peptide Substrate
A fluorescence intensity-based assay was used to monitor inhibition of human plasma kallikrein. The peptide substrate, Z-Gly-Pro-Arg-AMC (Purchased from Bachem; Catalog #1-1150) was chosen based on its relatively low KM for kallikrein which enables running the assay at lower substrate concentrations to control background fluorescence. The kinetic parameters for this substrate were determined by fitting titration data to the Michaelis-Menten equation yielding a KM=40 μM, kcat=0.76 s^−1, and kcat/KM=18932 M^−1s^−1.
Kallikrein FLINT assay was used with the following Z-Gly-Pro-Arg-AMC assay buffer: 50 mM Tris, pH 7.5, 100 mM NaCl, 5 mM CaCl2, 0.1 mg/mL BSA, 0.03% CHAPS. Assay buffer was prepared by mixing all ingredients fresh. 2× Z-Gly-Pro-Arg-AMC peptide substrate was prepared by diluting 10 mM stock into 1× assay buffer for a 100 μM working concentration (50 μM final concentration). The 2× kallikrein stock solution was prepared by diluting 14.76 μM stock in 1× assay buffer for a 4 nM working stock solution (2 nM final concentration).
Test compound(s) were run in an 11-point, 3-fold serial dilution with a final top compound concentration of 1 μM. Final DMSO in assay: 2% DMSO. 2 nM kallikrein and test compound were pre-incubated for 30 minutes and 50 μM substrate was then added to initiate the reaction. The assay was linear using 2 nM kallikrein greater than 30 minutes. More specifically, the assay was run as follows: • 100 nL of 1 mM test compound was dispensed into a black 384-well non-binding Greiner BioOne 784900 plate for 10 μM final concentration with 1% DMSO final concentration; • 5 μL of 1× assay buffer was dispensed to columns 24 (low control) and 5 μL 2× human kallikrein enzyme solution was dispensed to columns 1-23 (column 23 high control); • the plate was centrifuged with a cover plate at 500 rpm for 1 min • the plate was pre-incubated for 30 minutes at room temperature with plate covered; • 5 μL of 2× Z-Gly-Pro-Arg-AMC peptide substrate was dispensed into the entire plate, columns 1-24; • the plate was centrifuged with a “cover” plate at 500 rpm for 1 min; • the plate was read kinetically monitoring fluorescence intensity on the BMG PHERAStar at room temperature, using fluorescence module F1 340 mm/440 mm.
Percent inhibition (IC50) curves were generated per compound tested, and data was analyzed using a 4-parameter logistic fit using GeneData Screener. […]

Sequence of human plasma kallikrein (P03952 391-638 limits assumed): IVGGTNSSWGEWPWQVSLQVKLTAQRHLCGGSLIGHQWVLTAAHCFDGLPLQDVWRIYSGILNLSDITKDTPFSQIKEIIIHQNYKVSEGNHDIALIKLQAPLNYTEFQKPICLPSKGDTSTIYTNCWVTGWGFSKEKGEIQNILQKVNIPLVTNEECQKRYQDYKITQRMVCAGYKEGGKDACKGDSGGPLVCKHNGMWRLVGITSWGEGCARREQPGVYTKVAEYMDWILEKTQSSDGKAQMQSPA
Sequence of human plasma kallikrein (P03952 20-390 partner limits assumed): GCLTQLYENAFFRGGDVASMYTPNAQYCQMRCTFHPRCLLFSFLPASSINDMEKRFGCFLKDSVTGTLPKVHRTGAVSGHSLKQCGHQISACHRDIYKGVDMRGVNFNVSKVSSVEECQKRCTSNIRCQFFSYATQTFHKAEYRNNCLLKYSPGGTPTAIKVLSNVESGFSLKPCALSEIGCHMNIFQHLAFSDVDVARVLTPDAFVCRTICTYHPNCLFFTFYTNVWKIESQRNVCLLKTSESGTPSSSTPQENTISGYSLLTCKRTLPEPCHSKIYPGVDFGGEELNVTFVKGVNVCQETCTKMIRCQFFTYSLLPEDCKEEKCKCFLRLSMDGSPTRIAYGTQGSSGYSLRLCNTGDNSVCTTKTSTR

SMILES | pIC50 [1] | pIC50 (human plasma kallikrein)
O=C1C=C(c2c(-n3cnnn3)ccc(Cl)c2F)C[C@H]2CC[C@@H](c3ncc(-c4ccnc(CO)c4F)[nH]3)N12 [Compound of formula (I-A), (3S,8aR)-7-(3-Chloro-2-fluoro-6-(1H-tetrazol-1-yl)phenyl)-3-(5-(3-fluoro-2-(hydroxymethyl)pyridin-4-yl)-1H-imidazol-2-yl)-2,3,8,8a-tetrahydroindolizin-5(1H)-one] | < 4.00 | 
O=C(O)c1nccc(-c2cnc([C@@H]3CC[C@@H]4CC(c5c(-n6cnnn6)ccc(Cl)c5F)=CC(=O)N43)[nH]2)c1F [Compound of formula (II-A), 4-(2-((3S,8aR)-7-(3-chloro-2-fluoro-6-(1H-tetrazol-1-yl)phenyl)-5-oxo-1,2,3,5,8,8a-hexahydroindolizin-3-yl)-1H-imidazol-5-yl)-3-fluoropicolinic acid] |  | 7.96
